# Source: US7943619B2, “Isoxazolo-pyridazine derivatives” (priority 2007, dated 2011)
# Molecular target: human GABA A receptor α5β3γ2 (α5 subunit) (Homo sapiens, UniProt P18507+P31644)
# Test: biochemical
# Format: binding
# Conditions: competition for [3H]flumazenil binding, HEK293 cells transiently expressing human receptors; means of two determinations; read-out: hKi
# Description: The affinity of compounds at GABA A receptor subtypes was measured by competition for [3H]flumazenil (85 Ci/mmol; Roche) binding to HEK293 cells expressing rat (stably transfected) or human (transiently transfected) receptors of composition α1β3γ2, α2β3γ2, α3β3γ2 and α5β3γ2.
# Cell pellets were suspended in Krebs-tris buffer (4.8 mM KCl, 1.2 mM CaCl2, 1.2 mM MgCl2, 120 mM NaCl, 15 mM Tris; pH 7.5; binding assay buffer), homogenized by polytron for ca. 20 sec on ice and centrifuged for 60 min at 4° C. (50000 g; Sorvall, rotor: SM24=20000 rpm). The cell pellets were resuspended in Krebs-tris buffer and homogenized by polytron for ca. 15 sec on ice. Protein was measured (Bradford method, Bio-Rad) and aliquots of 1 mL were prepared and stored at −80° C.
# Assays were incubated to equilibrium for 1 hour at 4° C. and harvested onto GF/C uni-filters (Packard) by filtration using a Packard harvester and washing with ice-cold wash buffer (50 mM Tris; pH 7.5). After drying, filter-retained radioactivity was detected by liquid scintillation counting. Ki values were calculated using Excel-Fit (Microsoft) and are the means of two determinations.
# Chain of human GABA A receptor α5β3γ2 (α5 subunit) (P31644 32-462): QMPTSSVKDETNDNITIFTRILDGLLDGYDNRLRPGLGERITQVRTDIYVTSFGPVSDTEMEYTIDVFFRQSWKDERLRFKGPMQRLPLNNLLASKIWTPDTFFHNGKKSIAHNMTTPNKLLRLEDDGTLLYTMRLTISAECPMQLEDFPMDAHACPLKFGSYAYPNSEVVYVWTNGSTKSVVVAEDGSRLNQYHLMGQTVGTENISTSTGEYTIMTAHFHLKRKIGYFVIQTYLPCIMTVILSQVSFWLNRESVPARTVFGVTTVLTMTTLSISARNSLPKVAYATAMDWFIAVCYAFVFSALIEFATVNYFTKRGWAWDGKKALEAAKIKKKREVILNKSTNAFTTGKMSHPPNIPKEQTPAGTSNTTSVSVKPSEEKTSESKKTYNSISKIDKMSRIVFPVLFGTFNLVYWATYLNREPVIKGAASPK
# Chain of human GABA A receptor α5β3γ2 (α5 subunit) (P28472 26-473 partner): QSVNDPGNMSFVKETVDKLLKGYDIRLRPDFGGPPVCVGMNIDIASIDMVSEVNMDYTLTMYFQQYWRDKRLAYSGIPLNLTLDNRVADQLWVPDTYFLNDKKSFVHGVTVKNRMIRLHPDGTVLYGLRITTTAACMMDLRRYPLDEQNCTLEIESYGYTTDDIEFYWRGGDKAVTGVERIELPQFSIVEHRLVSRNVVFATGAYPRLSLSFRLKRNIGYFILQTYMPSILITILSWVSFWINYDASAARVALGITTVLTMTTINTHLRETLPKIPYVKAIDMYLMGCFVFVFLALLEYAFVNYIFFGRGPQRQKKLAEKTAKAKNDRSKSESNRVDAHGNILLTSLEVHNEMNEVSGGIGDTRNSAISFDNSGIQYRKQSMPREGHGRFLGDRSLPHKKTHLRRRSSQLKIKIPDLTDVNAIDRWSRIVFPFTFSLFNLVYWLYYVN
# Chain of human GABA A receptor α5β3γ2 (α5 subunit) (P18507 40-475): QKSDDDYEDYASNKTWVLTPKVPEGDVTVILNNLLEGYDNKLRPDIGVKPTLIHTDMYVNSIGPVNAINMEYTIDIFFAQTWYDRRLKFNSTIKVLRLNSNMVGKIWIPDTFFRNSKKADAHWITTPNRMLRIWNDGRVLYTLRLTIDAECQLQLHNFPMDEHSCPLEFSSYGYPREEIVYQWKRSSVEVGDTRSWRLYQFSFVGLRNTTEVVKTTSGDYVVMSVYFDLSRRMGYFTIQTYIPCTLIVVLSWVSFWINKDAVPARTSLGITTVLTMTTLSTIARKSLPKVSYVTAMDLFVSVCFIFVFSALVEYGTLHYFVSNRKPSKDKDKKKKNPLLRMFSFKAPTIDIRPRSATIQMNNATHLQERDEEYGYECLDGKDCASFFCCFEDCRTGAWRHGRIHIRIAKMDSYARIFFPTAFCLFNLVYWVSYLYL
row,SMILES,Ki
1,"Cc1onc(-c2ccc(F)cn2)c1COc1ccc(C(=O)NC(C)(C)CO)nn1 [Example 112, 6-[3-(5-Fluoro-pyridin-2-yl)-5-methyl-isoxazol-4-ylmethoxy]-pyridazine-3-carboxylic acid (2-hydroxy-1,1-dimethyl-ethyl)-amide]",1.5 nM
2,"Cc1onc(-c2ccc(Cl)cn2)c1COc1ccc(C(=O)O)nn1 [Example 113, 6-[3-(5-Chloro-pyridin-2-yl)-5-methyl-isoxazol-4-ylmethoxy]-pyridazine-3-carboxylic acid]",2.1 nM
3,"Cc1onc(-c2ccncn2)c1COc1ccc(C(=O)NCCO)nn1 [Example 114, 6-(5-Methyl-3-pyrimidin-4-yl-isoxazol-4-ylmethoxy)-pyridazine-3-carboxylic acid (2-hydroxy-ethyl)-amide]",4.7 nM
4,"Cc1onc(-c2ccncn2)c1COc1ccc(C(=O)NC(C)(C)CO)nn1 [Example 115, 6-(5-Methyl-3-pyrimidin-4-yl-isoxazol-4-ylmethoxy)-pyridazine-3-carboxylic acid (2-hydroxy-1,1-dimethyl-ethyl)-amide]",14.8 nM
5,"Cc1onc(-c2cccc(F)c2)c1CNc1ccc(C(=O)NCC(F)(F)F)nn1 [Example 118, 6-{[3-(3-Fluoro-phenyl)-5-methyl-isoxazol-4-ylmethyl]-amino}-pyridazine-3-carboxylic acid (2,2,2-trifluoro-ethyl)-amide]",28.9 nM
6,"Cc1onc(-c2ccc(Cl)cn2)c1CNc1ccc(C(=O)NC(C)(C)CO)nn1 [Example 119, 6-{[3-(5-Chloro-pyridin-2-yl)-5-methyl-isoxazol-4-ylmethyl]-amino}-pyridazine-3-carboxylic acid (2-hydroxy-1,1-dimethyl-ethyl)-amide]",7.3 nM
7,"CC(C)NC(=O)c1ccc(OCc2conc2-c2ccc(F)cc2)nn1 [Example 121, 6-[3-(4-Fluoro-phenyl)-isoxazol-4-ylmethoxy]-pyridazine-3-carboxylic acid isopropylamide]",27.6 nM
8,"O=C(NC1CCOCC1)c1ccc(OCc2conc2-c2ccc(F)cc2)nn1 [Example 122, 6-[3-(4-Fluoro-phenyl)-isoxazol-4-ylmethoxy]-pyridazine-3-carboxylic acid (tetrahydro-pyran-4-yl)-amide]",34.7 nM
9,"O=C(NC1CC1)c1ccc(OCc2conc2-c2ccccn2)nn1 [Example 124, 6-(3-Pyridin-2-yl-isoxazol-4-ylmethoxy)-pyridazine-3-carboxylic acid cyclopropylamide]",31.5 nM
